In ChEMBL document CHEMBL3745645, “Synthesis, in vitro antitumor activity, dihydrofolate reductase inhibition, DNA intercalation and structure-activity relationship studies of 1,3,5-triazine analogues” (Bioorg Med Chem Lett, 2016):
The source made the active and inactive calls. No cut-off for these calls is given here.

Tests used:
[1] = (§1) Cytotoxicity against human HCT15 cells at 10 uM after 48 hrs by SRB assay; type: functional; details: HCT-15, 48 h, read-out: GI
[2] = (§2) Cytotoxicity against human SF295 cells at 10 uM after 48 hrs by SRB assay; type: functional; details: SF-295, 48 h, read-out: GI
[3] = Cytotoxicity against human RPMI8226 cells after 48 hrs by SRB assay; type: functional; details: RPMI-8226, 48 h, read-out: LC50 (the source's name)
[4] = Cytotoxicity against human UO31 cells at 10 uM after 48 hrs by SRB assay; type: functional; details: UO-31, 48 h, read-out: GI
[5] = system: CCRF-CEM; assay: Cytotoxicity against human CCRF-CEM cells at 10 uM after 48 hrs by SRB assay; type: functional; details: read-out: GI
[6] = Cytotoxicity against human TK10 cells at 10 uM after 48 hrs by SRB assay; type: functional; details: TK-10, 48 h, read-out: GI
[7] = Cytotoxicity against human HOP62 cells at 10 uM after 48 hrs by SRB assay; type: functional; details: HOP-62, 48 h, read-out: GI
[8] = system: Calf thymus DNA; assay: Binding affinity to calf thymus DNA by UV-vis spectrometric analysis; type: nucleic-acid assay; details: Bos taurus
[9] = system: A549; assay: Cytotoxicity against human A549 cells at 10 uM after 48 hrs by SRB assay; type: functional; details: A549, 48 h, read-out: GI
[10] = system: HCC 2998; assay: (§3) Cytotoxicity against human HCC2998 cells at 10 uM after 48 hrs by SRB assay; type: functional
[11] = Cytotoxicity against human RPMI8226 cells at 10 uM after 48 hrs by SRB assay; type: functional; details: RPMI-8226, 48 h, read-out: GI
[12] = Cytotoxicity against human LOXIMVI cells at 10 uM after 48 hrs by SRB assay; type: functional; details: LOX IMVI, read-out: GI
[13] = Cytotoxicity against human SKOV3 cells at 10 uM after 48 hrs by SRB assay; type: functional; details: SK-OV-3, 48 h, read-out: GI
[14] = system: SK-MEL-28; assay: Cytotoxicity against human SK-MEL-28 cells at 10 uM after 48 hrs by SRB assay; type: functional
[15] = Cytotoxicity against human COLO205 cells after 48 hrs by SRB assay; type: functional; details: COLO 205, 48 h, pooled result: one value given for 7 cell lines, strains, targets or settings
[16] = Cytotoxicity against human DU145 cells at 10 uM after 48 hrs by SRB assay; type: functional; details: DU-145, 48 h, read-out: GI
[17] = system: OVCAR-4; assay: (§4) Cytotoxicity against human OVCAR4 cells at 10 uM after 48 hrs by SRB assay; type: functional
[18] = Cytotoxicity against human DU145 cells after 48 hrs by SRB assay; type: functional; details: DU-145, 48 h, read-out: LC50 (the source's name)
[19] = system: M14; assay: Cytotoxicity against human M14 cells at 10 uM after 48 hrs by SRB assay; type: functional
[20] = Cytotoxicity against human PC3 cells at 10 uM after 48 hrs by SRB assay; type: functional; details: PC-3, 48 h, read-out: GI
[21] = system: UACC-257; assay: Cytotoxicity against human UACC257 cells at 10 uM after 48 hrs by SRB assay; type: functional
[22] = system: NCI-H23; assay: Cytotoxicity against human NCI-H23 cells at 10 uM after 48 hrs by SRB assay; type: functional; details: NCI-H23, 48 h, read-out: GI
[23] = system: SN12C; assay: Cytotoxicity against human SN12C cells at 10 uM after 48 hrs by SRB assay; type: functional; details: read-out: GI
[24] = system: U-251; assay: Cytotoxicity against human U251 cells at 10 uM after 48 hrs by SRB assay; type: functional; details: U-251, 48 h, read-out: GI
[25] = Cytotoxicity against human SNB19 cells at 10 uM after 48 hrs by SRB assay; type: functional; details: SNB-19, 48 h, read-out: GI
[26] = system: NCI-H226; assay: Cytotoxicity against human NCI-H226 cells at 10 uM after 48 hrs by SRB assay; type: functional; details: NCI-H226, 48 h, read-out: GI
[27] = Cytotoxicity against human OVCAR3 cells at 10 uM after 48 hrs by SRB assay; type: functional; details: OVCAR-3, 48 h, read-out: GI
[28] = system: 786-0; assay: Cytotoxicity against human 786-0 cells after 48 hrs by SRB assay; type: functional; details: 786-0, 48 h, pooled result: one value given for 8 cell lines, strains, targets or settings
[29] = Cytotoxicity against human IGROV1 cells after 48 hrs by SRB assay; type: functional; details: IGROV-1, 48 h, pooled result: one value given for 7 cell lines, strains, targets or settings
[30] = Cytotoxicity against human BT549 cells at 10 uM after 48 hrs by SRB assay; type: functional; details: BT-549, 48 h, read-out: GI
[31] = Cytotoxicity against human LOXIMVI cells after 48 hrs by SRB assay; type: functional; details: LOX IMVI, pooled result: one value given for 9 cell lines, strains, targets or settings
[32] = (§5) Cytotoxicity against human UACC62 cells at 10 uM after 48 hrs by SRB assay; type: functional; details: UACC-62, 48 h, read-out: GI
[33] = system: CCRF-CEM; assay: Cytotoxicity against human CCRF-CEM cells after 48 hrs by SRB assay; type: functional; details: for GI50 / TGI: pooled result: one value given for 6 cell lines, strains, targets or settings
[34] = system: MDA-MB-435; assay: Cytotoxicity against human MDA-MB-435 cells at 10 uM after 48 hrs by SRB assay; type: functional; details: MDA-MB-435, 48 h, read-out: GI
[35] = system: OVCAR-5; assay: Cytotoxicity against human OVCAR5 cells at 10 uM after 48 hrs by SRB assay; type: functional
[36] = system: HCT-15; assay: as §1; type: functional
[37] = system: SF-295; assay: as §2; type: functional
[38] = as §3; type: functional; details: HCC 2998, 48 h, read-out: GI
[39] = as §4; type: functional; details: OVCAR-4, 48 h, read-out: GI
[40] = system: UACC-62; assay: as §5; type: functional

SMILES: Cc1nc2ccc(Nc3nc(Cl)nc(Nc4ccc(F)cc4)n3)cc2n1Cc1ccccc1
- inhibition of growth at 10 µM [1]: 44.2%
- inhibition of growth at 10 µM [2]: 21.8%
- CC50 [3]: > 100 µM
- inhibition of growth at 10 µM [4]: 62.9%
- inhibition of growth at 10 µM [5]: 77.1%
- inhibition of growth at 10 µM [6]: 7.64%
- inhibition of growth at 10 µM [7]: 56.1%
- Ka [8]: 6.03 ×10⁴ /M
- inhibition of growth at 10 µM [9]: 23.8%
- growth inhibition (GI) [10]: inactive
- inhibition of growth at 10 µM [11]: 87.5%
- inhibition of growth at 10 µM [12]: 64.8%
- inhibition of growth at 10 µM [13]: 2.61%
- inhibition of growth at 10 µM ([14]; SK-MEL-28, 48 h, read-out: GI): 8.45%
- GI50 [15]: 4.91 µM
- LC50 [15]: 54.6 µM
- TGI [15]: 18.1 µM
- inhibition of growth at 10 µM [16]: 5.78%
- growth inhibition (GI) [17]: inactive
- CC50 [18]: 52.5 µM
- inhibition of growth at 10 µM ([19]; M14, 48 h, read-out: GI): 17.7%
- inhibition of growth at 10 µM [20]: 19.2%
- growth inhibition (GI) [21]: inactive
- inhibition of growth at 10 µM [22]: 11.8%
- inhibition of growth at 10 µM [23]: 53.3%
- inhibition of growth at 10 µM [24]: 30.9%
- inhibition of growth at 10 µM [25]: 12%
- inhibition of growth at 10 µM [26]: 26.8%
- inhibition of growth at 10 µM [27]: 5.09%
- GI50 [28]: 7.49 µM
- LC50 (concentration killing 50% of cells) [28]: 55.5 µM
- TGI [28]: 30 µM
- GI50 [29]: 8.1 µM
- LC50 (concentration killing 50% of cells) [29]: 78.8 µM
- TGI [29]: 29.8 µM
- inhibition of growth at 10 µM [30]: 39.8%
- GI50 [31]: 5.92 µM
- LC50 [31]: 53.9 µM
- TGI [31]: 18.4 µM
- inhibition of growth at 10 µM [32]: 48.6%
- LC50 [33]: > 100 µM
- GI50 [33]: 3.34 µM
- TGI [33]: 8.68 µM
- inhibition of growth at 10 µM [34]: 11.2%
- growth inhibition (GI) [35]: inactive

SMILES: Cc1nc2ccc(Nc3nc(NCCN4CCOCC4)nc(Nc4ccc(F)cc4)n3)cc2n1Cc1ccccc1
- growth inhibition (GI) [36]: Active
- growth inhibition (GI) [37]: Active
- CC50 [3]: 55 µM
- inhibition of growth at 10 µM [4]: 62.7%
- inhibition of growth at 10 µM [5]: 70.5%
- inhibition of growth at 10 µM [6]: 39.4%
- inhibition of growth at 10 µM [7]: 52.2%
- Ka [8]: 7.19 ×10⁴ /M
- inhibition of growth at 10 µM [9]: 53.7%
- inhibition of growth at 10 µM [38]: 55.4%
- inhibition of growth at 10 µM [11]: 96.9%
- inhibition of growth at 10 µM [12]: 94.3%
- inhibition of growth at 10 µM [13]: 21%
- growth inhibition (GI) [14]: Active
- GI50 [15]: 2.6 µM
- LC50 [15]: 24 µM
- TGI [15]: 8.51 µM
- inhibition of growth at 10 µM [16]: 40.8%
- inhibition of growth at 10 µM [39]: 1.85%
- CC50 [18]: 62.5 µM
- growth inhibition (GI) [19]: Active
- inhibition of growth at 10 µM [20]: 28.5%
- growth inhibition (GI) [21]: Active
- inhibition of growth at 10 µM [22]: 33%
- inhibition of growth at 10 µM [23]: 38.1%
- inhibition of growth at 10 µM [24]: 71.3%
- inhibition of growth at 10 µM [25]: 21.3%
- inhibition of growth at 10 µM [26]: 27.9%
- inhibition of growth at 10 µM [27]: 26.3%
- GI50 [28]: 3.03 µM
- LC50 (concentration killing 50% of cells) [28]: 14.6 µM
- TGI [28]: 19.3 µM
- GI50 [29]: 4.01 µM
- LC50 (concentration killing 50% of cells) [29]: 62.3 µM
- TGI [29]: 27.4 µM
- inhibition of growth at 10 µM [30]: 50.1%
- GI50 [31]: 1.91 µM
- LC50 [31]: 24.2 µM
- TGI [31]: 4.08 µM
- growth inhibition (GI) [40]: Active
- LC50 [33]: 55 µM
- GI50 [33]: 1.96 µM
- TGI [33]: 6.82 µM
- inhibition of growth at 10 µM [34]: 47.8%
